# Laboratory results: ChEMBL document CHEMBL1240428, “Conventional and microwave assisted synthesis of some new N-[(4-oxo-2-substituted aryl -1, 3-thiazolidine)-acetamidyl]-5-nitroindazoles and its antimicrobial activity” (2010)
# Tests used:
# Bacillus subtilis [1] = experiment: Antibacterial activity against Bacillus subtilis; assay type: functional
# Escherichia coli [2] = experiment: Antibacterial activity against Escherichia coli at 50 ug/mL; assay type: functional; conditions: read-out: IZ
# Penicillium citrinum [3] = experiment: Antifungal activity against Penicillium citrinum; assay type: functional
# Salmonella typhi [4] = experiment: Antibacterial activity against Salmonella typhi at 100 ug/mL; conditions: read-out: IZ
# Escherichia coli [5] = experiment: Antibacterial activity against Escherichia coli; assay type: functional
# Aspergillus flavus [6] = experiment: Antifungal activity against Aspergillus flavus at 50 ug/mL; assay type: functional; conditions: read-out: IZ
# Salmonella typhi [7] = experiment: Antibacterial activity against Salmonella typhi at 50 ug/mL; conditions: read-out: IZ
# Salmonella typhi [8] = experiment: Antibacterial activity against Salmonella typhi
# Fusarium oxysporum [9] = experiment: Antifungal activity against Fusarium oxysporum at 100 ug/mL; assay type: functional; conditions: read-out: IZ
# Aspergillus flavus [10] = experiment: Antifungal activity against Aspergillus flavus at 100 ug/mL; assay type: functional; conditions: read-out: IZ
# Escherichia coli [11] = experiment: Antibacterial activity against Escherichia coli at 100 ug/mL; assay type: functional; conditions: read-out: IZ
# Penicillium citrinum [12] = experiment: Antifungal activity against Penicillium citrinum at 50 ug/mL; assay type: functional; conditions: read-out: IZ
# Penicillium citrinum [13] = experiment: Antifungal activity against Penicillium citrinum at 100 ug/mL; assay type: functional; conditions: read-out: IZ
# Aspergillus flavus [14] = experiment: Antifungal activity against Aspergillus flavus; assay type: functional
# Bacillus subtilis [15] = experiment: Antibacterial activity against Bacillus subtilis at 50 ug/mL; assay type: functional; conditions: read-out: IZ
# Fusarium oxysporum [16] = experiment: Antifungal activity against Fusarium oxysporum; assay type: functional
# Fusarium oxysporum [17] = experiment: Antifungal activity against Fusarium oxysporum at 50 ug/mL; assay type: functional; conditions: read-out: IZ
# Bacillus subtilis [18] = experiment: Antibacterial activity against Bacillus subtilis at 100 ug/mL; assay type: functional; conditions: read-out: IZ
Compound,MIC (Bacillus subtilis [1]),MIC (Penicillium citrinum [3]),MIC (Escherichia coli [5]),MIC (Salmonella typhi [8]),MIC (Aspergillus flavus [14]),MIC (Fusarium oxysporum [16]),zone of inhibition at 50 µg/mL (Escherichia coli [2]),zone of inhibition at 100 µg/mL (Salmonella typhi [4]),zone of inhibition at 50 µg/mL (Aspergillus flavus [6]),zone of inhibition at 50 µg/mL (Salmonella typhi [7]),zone of inhibition at 100 µg/mL (Fusarium oxysporum [9]),zone of inhibition at 100 µg/mL (Aspergillus flavus [10]),zone of inhibition at 100 µg/mL (Escherichia coli [11]),zone of inhibition at 50 µg/mL (Penicillium citrinum [12]),zone of inhibition at 100 µg/mL (Penicillium citrinum [13]),zone of inhibition at 50 µg/mL (Bacillus subtilis [15]),zone of inhibition at 50 µg/mL (Fusarium oxysporum [17]),zone of inhibition at 100 µg/mL (Bacillus subtilis [18])
O=C(Cn1ncc2cc([N+](=O)[O-])ccc21)N/N=C/c1cccc([N+](=O)[O-])c1,16 µg/mL,18 µg/mL,15 µg/mL,15 µg/mL,13 µg/mL,11 µg/mL,20.9 mm,23.6 mm,22.5 mm,20 mm,25.4 mm,24.9 mm,23.5 mm,19 mm,23.8 mm,18.7 mm,22.9 mm,21.9 mm
O=C(Cn1ncc2cc([N+](=O)[O-])ccc21)NN1C(=O)CSC1c1ccccc1Br (centres undefined),20 µg/mL,20 µg/mL,17 µg/mL,17 µg/mL,17 µg/mL,13 µg/mL,19.2 mm,21 mm,18.8 mm,17.2 mm,22.6 mm,21.7 mm,21.8 mm,17.2 mm,21 mm,16 mm,19.8 mm,20.5 mm
COc1ccccc1/C=N/NC(=O)Cn1ncc2cc([N+](=O)[O-])ccc21,38 µg/mL,35 µg/mL,27 µg/mL,30 µg/mL,23 µg/mL,20 µg/mL,11.5 mm,13.5 mm,11 mm,9.8 mm,15.2 mm,14 mm,14 mm,9.1 mm,12.8 mm,9 mm,12.6 mm,12.8 mm
NNC(=O)Cn1ncc2cc([N+](=O)[O-])ccc21,43 µg/mL,38 µg/mL,32 µg/mL,36 µg/mL,32 µg/mL,28 µg/mL,7 mm,8 mm,7 mm,6 mm,10.5 mm,10 mm,10 mm,6 mm,8.9 mm,5 mm,8.3 mm,7 mm
CCOC(=O)Cn1ncc2cc([N+](=O)[O-])ccc21,45 µg/mL,40 µg/mL,35 µg/mL,38 µg/mL,34 µg/mL,30 µg/mL,5 mm,7 mm,5.8 mm,4 mm,9 mm,8 mm,8 mm,4 mm,6 mm,3 mm,6.5 mm,5 mm
COc1ccc(C2SCC(=O)N2NC(=O)Cn2ncc3cc([N+](=O)[O-])ccc32)cc1 (centres undefined),25 µg/mL,28 µg/mL,20 µg/mL,20 µg/mL,19 µg/mL,15 µg/mL,16 mm,17 mm,14.8 mm,13.8 mm,18.9 mm,17.7 mm,18 mm,13.6 mm,17 mm,12.4 mm,16 mm,16 mm
CN(C)c1ccc(C2SCC(=O)N2NC(=O)Cn2ncc3cc([N+](=O)[O-])ccc32)cc1 (centres undefined),36 µg/mL,30 µg/mL,22 µg/mL,25 µg/mL,22 µg/mL,18 µg/mL,13.5 mm,14.9 mm,12.6 mm,11.5 mm,16.8 mm,15.4 mm,16 mm,11.4 mm,14.5 mm,10.4 mm,13.9 mm,13.8 mm
COc1ccc(/C=N/NC(=O)Cn2ncc3cc([N+](=O)[O-])ccc32)cc1,38 µg/mL,32 µg/mL,25 µg/mL,25 µg/mL,22 µg/mL,18 µg/mL,12.6 mm,14.8 mm,12.2 mm,11 mm,16.2 mm,15.1 mm,15 mm,10 mm,14 mm,10 mm,13.9 mm,13.9 mm

# The next lines start with results.
MIC (Bacillus subtilis [1]),MIC (Penicillium citrinum [3]),MIC (Escherichia coli [5]),MIC (Salmonella typhi [8]),MIC (Aspergillus flavus [14]),MIC (Fusarium oxysporum [16]),Compound,zone of inhibition at 50 µg/mL (Escherichia coli [2]),zone of inhibition at 100 µg/mL (Salmonella typhi [4]),zone of inhibition at 50 µg/mL (Aspergillus flavus [6]),zone of inhibition at 50 µg/mL (Salmonella typhi [7]),zone of inhibition at 100 µg/mL (Fusarium oxysporum [9]),zone of inhibition at 100 µg/mL (Aspergillus flavus [10]),zone of inhibition at 100 µg/mL (Escherichia coli [11]),zone of inhibition at 50 µg/mL (Penicillium citrinum [12]),zone of inhibition at 100 µg/mL (Penicillium citrinum [13]),zone of inhibition at 50 µg/mL (Bacillus subtilis [15]),zone of inhibition at 50 µg/mL (Fusarium oxysporum [17]),zone of inhibition at 100 µg/mL (Bacillus subtilis [18])
40 µg/mL,32 µg/mL,25 µg/mL,30 µg/mL,23 µg/mL,20 µg/mL,Cc1ccc(C2SCC(=O)N2NC(=O)Cn2ncc3cc([N+](=O)[O-])ccc32)cc1 (centres undefined),12 mm,13.3 mm,11.1 mm,10.1 mm,15.4 mm,14 mm,14.8 mm,10 mm,13.2 mm,9 mm,12.9 mm,12.2 mm
23 µg/mL,25 µg/mL,18 µg/mL,18 µg/mL,19 µg/mL,15 µg/mL,O=C(Cn1ncc2cc([N+](=O)[O-])ccc21)NN1C(=O)CSC1c1ccccc1 (centres undefined),17.2 mm,18.4 mm,16 mm,14.6 mm,20 mm,19 mm,19.1 mm,14.8 mm,18.4 mm,13.5 mm,17.1 mm,17.4 mm
21 µg/mL,25 µg/mL,18 µg/mL,18 µg/mL,18 µg/mL,15 µg/mL,O=C(Cn1ncc2cc([N+](=O)[O-])ccc21)N/N=C/c1cccc(Br)c1,17.4 mm,20 mm,17.8 mm,15.9 mm,20.7 mm,20.9 mm,20.1 mm,14.5 mm,19 mm,15.1 mm,18.8 mm,18.3 mm
17 µg/mL,20 µg/mL,15 µg/mL,15 µg/mL,14 µg/mL,11 µg/mL,O=C(Cn1ncc2cc([N+](=O)[O-])ccc21)N/N=C/c1ccccc1[N+](=O)[O-],20 mm,22.8 mm,21.4 mm,19 mm,24.2 mm,24 mm,22.8 mm,18 mm,22.7 mm,18 mm,22 mm,21 mm
25 µg/mL,28 µg/mL,20 µg/mL,20 µg/mL,19 µg/mL,15 µg/mL,O=C(Cn1ncc2cc([N+](=O)[O-])ccc21)N/N=C/c1ccccc1O,15.4 mm,17.5 mm,14.9 mm,13.8 mm,18.5 mm,18 mm,18 mm,12 mm,16.8 mm,12.8 mm,16.2 mm,16 mm
